Measured values reported in US10010400B2, “Devices and methods for local delivery of drug to upper urinary tract” (TARIS Biomedical LLC, priority 2015, dated 2018).

Assay: in vitro osmotic pumping of methylene blue up a capillary tube from a closed drug reservoir
Type: physicochemical
Conditions: reservoir with urea and lactose tablets in 125 mL degassed, deionized water; 36 cm capillary tube extended vertically
Excerpt: Another experimental system was designed to simulate a ureteral drug delivery device having a flexible elongate body with a bladder end portion and a kidney end portion, a drug reservoir located at the bladder end portion which contains a drug and has a semi-permeable wall, and a drug lumen (capillary tube) having a first opening into the drug reservoir and a second end opening at the kidney end portion of the flexible elongate body. The ureteral drug delivery device used in the experiments was configured to permit water to enter the drug reservoir through the semi-permeable wall to create an osmotic pressure to pump the drug from the drug reservoir through the capillary tube and out of the device through the second end opening.
In this experiment, a drug reservoir similar to that illustrated in FIG. 11A was prepared. In particular, a spacer end piece was adhered using silicone adhesive within a tubular silicone housing. 10.5 cm of urea tablets, 4 cm of lactose tablets, and one tablet containing methylene blue were loaded into the tubular housing. A capillary tube (36 cm) having two spacers disposed in a spaced relationship at one end was slid into the tubular housing of the drug reservoir, adjacent the methylene blue tablet. […]

- movement of the dye up the capillary tube: observed
Compound: CN(C)c1ccc2nc3ccc(=[N+](C)C)cc-3sc2c1 [methylene blue]
